Experimental data taken from patent US20220152087A1, “CYCLODEXTRIN DERIVATIVES REDUCING FLAVIVIRUS NS1-INDUCED ENDOTHELIAL HYPERPERMEABILITY AND VASCULAR LEAK” (priority 2020, published 2022).

Each substance was assayed on endothelial dysfunction induced by DENV NS1 in HPMEC monolayers (assay: Effect of cyclodextrins on endothelial dysfunction induced by DENV NS1 (TEER of HPMEC monolayers in transwells)). Details: DENV NS1 at 10 micrograms/mL, TEER 2 to 10 hours post-treatment, AUC vs DENV NS1-only control.
Format: cell-based, human
Procedure: The present invention is based on the evaluation of the in vitro efficacy against DENV NS1-mediated pathogenesis of a series of different CDs that display variable cavity sizes as well as different degrees and types of substitution. In an in vitro model of endothelial permeability, CDs, at concentrations with no anticoagulant effects, were added to human pulmonary microvascular endothelial cells (HPMECs) treated with DENV NS1 to induce endothelial hyperpermeability.
Endothelial disruption (hyperpermeability) was quantified by measuring transendothelial electrical resistance (TEER). […] Sulfate group substitution of cyclodextrins contributed to the anti-leak activity.
The method is suitable to study the effect of NS1 from DENV from all serotypes and NS1 from other flaviviruses. HPMEC monolayers (6×10^4 cells/transwell) cultured in transwell inserts for three days were treated with the CD compounds then treated or not with DENV NS1 at 10 micrograms/mL. Recombinant NS1 protein from DENV (Strain 16681) weas certified to be endotoxin-free and >95% purity (Native Antigen, United Kingdom). TEER was measured from 2 to 10 hours post-treatment. The area under the curve of the different treatments+DENV NS1 was compared by one-way ANOVA plus Dunnett's test to the DENV NS1-only control.
Randomly substituted alpha-cyclodextrin sulfate sodium salt (average degree of substitution: ˜12) was used as specified according to Example 1. […] A) HPMEC monolayers (6×10e4 cells/transwell) cultured in transwell inserts for three days were treated with the compounds in the presence or absence of DENV NS1 at 10 ug/mL. TEER was measured from 2 to 10 hours post-treatment. Relative TEER was calculated as the ratio between resistance values obtained in the different treatments and medium-only controls. B) Area under the curve of the different treatments was compared by one-way ANOVA plus Dunnett's test to the DENV NS1control. P-values are summarized with number of asterisks as follows: *p≤0.05, **p≤0.01, ***p≤0.001, ****p≤0.0001. The effective dose of cyclodextrin for hindering endothelial leakage was 10 micrograms/mL.

Substance | effective dose of cyclodextrin for hindering endothelial leakage / hyperpermeability [micrograms/mL]
2,3-di-OH-6-sulfo-gamma cyclodextrin sodium salt | 10
2,3-dimethyl-6-sulfate-alpha cyclodextrin sodium salt | 250
2,3-dimethyl-6-sulfate-beta cyclodextrin sodium salt | 100
2,3-dimethyl-6-sulfate-gamma cyclodextrin sodium salt | 100
2-hydroxypropyl-beta-cyclodextrin [reference compound] | 1000
2-hydroxypropyl-gamma-cyclodextrin | 1000
alpha-cyclodextrin sulfate sodium salt | 10
beta cyclodextrin sulfate sodium salt | 10
gamma cyclodextrin sulfate sodium salt | 10
sulfobutlyether beta cyclodextrin sodium salt | 100
sulfopropylether alpha cyclodextrin sodium salt | 1000
sulfopropylether beta cyclodextrin sodium salt | 1000
sulfopropylether gamma cyclodextrin sodium salt | 1000
